The values that follow come from PubChem BioAssay AID330 (DTP/NCI, 2004).

SMILES strings stand for the structures. Values joined by “and” are separate entries in the source; they are usually repeats but may differ in a detail not shown here. Identical values can stand only once. Toxic doses and inconclusive results are not listed.

The subject of the assay is P388 leukemia ip, CD2F1 mice, survival T/C. Nature of the assay: NCI In Vivo Anticancer Drug Screen. Data for tumor model P388 Leukemia (intraperitoneal) in CD2F1 (CDF1) mice. As to conditions: endpoint: median survival time, higher = longer survival. In short, it runs like this: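 Mice carrying the transplanted tumor received test compound or vehicle. Survival was recorded in each group, and the value is the treated-group measurement divided by that of the vehicle-treated control group.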

The mark [1] stands for this setting: dose: 25.0 mg/kg/injection, schedule: Q01DX009 (ip), vehicle: Klucel (hydroxypropylcellulose) (HPC).
Where [2] appears, read: dose: 50.0 mg/kg/injection, schedule: Q01DX009 (ip), vehicle: Klucel (hydroxypropylcellulose) (HPC).
Where [3] appears, read: dose: 100.0 mg/kg/injection, schedule: Q01DX009 (ip), vehicle: Klucel (hydroxypropylcellulose) (HPC).
The mark [4] stands for this setting: dose: 50.0 mg/kg/injection, schedule: Q01DX009 (ip), vehicle: saline.
[5] abbreviates: dose: 50.0 mg/kg/injection, schedule: Q01DX005 (ip), vehicle: saline with Tween-80.
[6] abbreviates: dose: 100.0 mg/kg/injection, schedule: Q01DX005 (ip), vehicle: saline with Tween-80.
[7] abbreviates: dose: 200.0 mg/kg/injection, schedule: Q01DX005 (ip), vehicle: saline with Tween-80.
Setting [8] is: dose: 12.5 mg/kg/injection, schedule: Q01DX009 (ip), vehicle: saline with Tween-80.
[9] abbreviates: dose: 25.0 mg/kg/injection, schedule: Q01DX009 (ip), vehicle: saline with Tween-80.

Take `O=C(O)CCc1c(-c2ccccc2)[nH]c2ccccc12`: the T/C by setting is: (dose: 60.0 mg/kg/injection, schedule: Q01DX005 (ip), vehicle: Klucel + Tween-80) 100 % of control; (dose: 120.0 mg/kg/injection, schedule: Q01DX005 (ip), vehicle: Klucel + Tween-80) 100 % of control; (dose: 240.0 mg/kg/injection, schedule: Q01DX005 (ip), vehicle: Klucel + Tween-80) 100 % of control.

In the case of `CC(C)(C)CC(C)(C)c1ccc(OCCOc2ccc(C(=O)NCCNC(=O)c3ccc4ccccc4c3O)cc2N)cc1`, the T/C was 102 % of control (dose: 6.25 mg/kg/injection, schedule: Q01DX009 (ip), vehicle: Klucel (hydroxypropylcellulose) (HPC)); 114 % of control (dose: 12.5 mg/kg/injection, schedule: Q01DX009 (ip), vehicle: Klucel (hydroxypropylcellulose) (HPC)); 102 % of control under setting [1]; 98 % of control under setting [2]; 102 % of control under setting [3].

In the case of `CCN(CC)c1ccc([P+](=O)O)cc1`, the T/C is, setting by setting: under setting [4], 108 % of control; (dose: 100.0 mg/kg/injection, schedule: Q01DX009 (ip), vehicle: saline) 100 % of control.

As to `Cc1cc(O)c(C(=O)O)c2c1CCC(C1(C)CO1)C2` (centres undefined), the T/C (dose: 1.56 mg/kg/injection, schedule: Q01DX005 (ip), vehicle: Klucel (hydroxypropylcellulose) (HPC)) is 100 % of control; the T/C (dose: 3.12 mg/kg/injection, schedule: Q01DX005 (ip), vehicle: Klucel (hydroxypropylcellulose) (HPC)) is 101 % of control; the T/C (dose: 6.25 mg/kg/injection, schedule: Q01DX005 (ip), vehicle: Klucel (hydroxypropylcellulose) (HPC)) is 100 % of control; the T/C (dose: 12.5 mg/kg/injection, schedule: Q01DX005 (ip), vehicle: Klucel (hydroxypropylcellulose) (HPC)) was 105 % of control; the T/C (dose: 25.0 mg/kg/injection, schedule: Q01DX005 (ip), vehicle: Klucel (hydroxypropylcellulose) (HPC)) is 107 % of control.

Turning to `CCN1N=Nc2ccccc2NC1=O`, the T/C under setting [5] was 101 % of control, the T/C under setting [6] was 91 % of control and the T/C under setting [7] was 96 % of control.

As for `CCN=C1SCCCS1`, the T/C by setting is: under setting [8], 103 % of control; under setting [9], 118 % of control; (dose: 50.0 mg/kg/injection, schedule: Q01DX009 (ip), vehicle: saline with Tween-80) 113 % of control and 119 % of control; (dose: 100.0 mg/kg/injection, schedule: Q01DX009 (ip), vehicle: saline with Tween-80) 117 % of control.

As for `COc1cc(NS(C)(=O)=O)ccc1Nc1c2ccccc2nc2cc(C(F)(F)F)c(N)cc12`, the T/C was 162 % of control (dose: 13.0 mg/kg/injection, schedule: Q04DX003 (ip), vehicle: distilled water + Tween-80); 180 % of control (dose: 21.6 mg/kg/injection, schedule: Q04DX003 (ip), vehicle: distilled water + Tween-80); 172 % of control under setting [1]; 190 % of control (dose: 36.0 mg/kg/injection, schedule: Q04DX003 (ip), vehicle: distilled water + Tween-80); 152 % of control and 182 % of control under setting [2]; 228 % of control (dose: 60.0 mg/kg/injection, schedule: Q04DX003 (ip), vehicle: distilled water + Tween-80). Under setting [3], the T/C is 123 % of control.

For `CC1=NN(C(=O)CC(=O)Nc2ccc(C(=O)O)cc2)C(=O)C1N=Nc1ccc(S(N)(=O)=O)cc1` (centres undefined), the T/C is 96 % of control under setting [5], 94 % of control under setting [6] and 93 % of control under setting [7].

As to `CC(=O)Nc1ccc2c(C)ccnc2c1`, the T/C is, setting by setting: (dose: 50.0 mg/kg/injection, schedule: Q01DX009 (ip), vehicle: distilled water + alcohol) 103 % of control; (dose: 100.0 mg/kg/injection, schedule: Q01DX009 (ip), vehicle: distilled water + alcohol) 104 % of control; (dose: 200.0 mg/kg/injection, schedule: Q01DX009 (ip), vehicle: distilled water + alcohol) 105 % of control.

Take `C[CH2][Ge]([CH2]C)[CH2]C.C[CH2][Ge]([CH2]C)[CH2]C(=O)OC`: the T/C runs as follows: (dose: 50.0 mg/kg/injection, schedule: Q01DX005 (ip), vehicle: Klucel (hydroxypropylcellulose) (HPC)) 99 % of control; (dose: 100.0 mg/kg/injection, schedule: Q01DX005 (ip), vehicle: Klucel (hydroxypropylcellulose) (HPC)) 100 % of control; (dose: 200.0 mg/kg/injection, schedule: Q01DX005 (ip), vehicle: Klucel (hydroxypropylcellulose) (HPC)) 100 % of control.

As for `CC12CC3(C)CC(C)(C1)CC(C(Cl)C(=O)NC(C)(C)C)(C2)C3` (centres undefined), the T/C was 97 % of control under setting [2]; 93 % of control under setting [3]; 107 % of control (dose: 200.0 mg/kg/injection, schedule: Q01DX009 (ip), vehicle: Klucel (hydroxypropylcellulose) (HPC)).

For `CC(C)=CCCC(C)(OC1OC(COC2OC(CO)C(O)C(O)C2O)C(O)C(O)C1O)C1CCC2(C)C1C(O)CC1C3(C)CCC(OC4OC(CO)C(O)C(O)C4OC4OC(CO)C(O)C(O)C4O)C(C)(C)C3CCC12C` (centres undefined), the T/C reads like this: (dose: 2.0 mg/kg/injection, schedule: Q01DX009 (ip), vehicle: Klucel (hydroxypropylcellulose) (HPC)) 102 % of control; (dose: 4.0 mg/kg/injection, schedule: Q01DX009 (ip), vehicle: Klucel (hydroxypropylcellulose) (HPC)) 95 % of control; (dose: 8.0 mg/kg/injection, schedule: Q01DX009 (ip), vehicle: Klucel (hydroxypropylcellulose) (HPC)) 98 % of control; (dose: 16.0 mg/kg/injection, schedule: Q01DX009 (ip), vehicle: Klucel (hydroxypropylcellulose) (HPC)) 93 % of control; (dose: 32.0 mg/kg/injection, schedule: Q01DX009 (ip), vehicle: Klucel (hydroxypropylcellulose) (HPC)) 88 % of control.

For `CC1(C(F)(F)F)CC(=O)NN1` (centres undefined), the T/C runs as follows: (dose: 25.0 mg/kg/injection, schedule: Q01DX009 (ip), vehicle: saline) 104 % of control; under setting [4], 118 % of control.

Turning to `CCCCN(CCCC)CCC(O)c1cc(-c2ccc(C(F)(F)F)cc2)nc(C(F)(F)F)c1` (centres undefined), the T/C (dose: 6.25 mg/kg/injection, schedule: Q01DX009 (ip), vehicle: saline with Tween-80) is 89 % of control; the T/C under setting [8] was 94 % of control; the T/C under setting [9] was 110 % of control.

With `Cc1cc2oc3c(c2c(=O)[nH]1)C(=O)c1ccccc1C3=O`, the T/C is, setting by setting: (dose: 60.0 mg/kg/injection, schedule: Q01DX005 (ip), vehicle: saline with Tween-80) 100 % of control; (dose: 120.0 mg/kg/injection, schedule: Q01DX005 (ip), vehicle: saline with Tween-80) 94 % of control; (dose: 240.0 mg/kg/injection, schedule: Q01DX005 (ip), vehicle: saline with Tween-80) 91 % of control.
